From patent publication US4125606A, “Octapeptide useful for the treatment of diabetes” (Choay S.A., priority 1974, dated 1978)
Where no end group is shown, it is not given here.

How the values were obtained:
[1] = target: glyceraldehyde 3-phosphate dehydrogenase (Homo sapiens, UniProt P04406); assay: Enzymatic effect in vitro: lifting of somantine inhibition of glyceraldehyde 3-phosphate dehydrogenase; format: biochemical
Protocol: In this test, the compound (I) was tested for its ability to raise the inhibition of a somantine extracted from a plasma with respect to the action of glyceraldehyde 3-phosphate dehydrogenase.
To this end, the activity of the enzyme in the presence successively of somantine alone, of the compound (I) alone, and finally in the presence of somantine and of the compound (I), were measured.
In this test, the glyceraldehyde 3-phosphate dehydrogenase was used at a concentration of 0.5 μg/ml, the somantine at 25 μg/ml, and the compound (I) at 50 μg/ml.
The method used for the measurements is that of Pihl and Lang (J. Biol. Chem 237: 1356-1362, 1962).

[2] = tested on: insulin receptors of lipid cells; assay: Insulin binding to trypsinated lipid cells; format: cell-based; details: octapeptide introduced into the medium; trypsinated cells alone no longer fix insulin
Source text: In an attempt to elucidate the mechanism of action of the octapeptide (I) with respect to insulin, the phenomena were first studied at the level of the insulin receptors of lipid cells trypsinated to destroy said receptors.

[3] = tested on: glucose receptors of the Langerhans islets; assay: Insulin liberated by Langerhans islets removed from treated animals; format: in vivo; details: islets removed one day or four days after injection; medium supplemented with glucose
Protocol: Finally, the effect of the octapeptide (I) on the glucose receptors of the Langerhans islets was determined. For this purpose, the octapeptide (I) was injected into animals.
One day or four days later, the animals were killed and the islets of Langerhans removed. The latter were placed in a reaction medium supplemented with glucose, and the amount of insulin liberated was determined and compared to controls.

[4] = tested on: diabetic rats; assay: Effect on glycemia in diabetic animals; format: in vivo; details: diabetic rats fasted 4 hours; glucose 0.5 g/kg; octapeptide 2 μg/g
Protocol: In this test, the drop in glycemia was compared after the simultaneous injection of glucose, on the one hand, and, on the other hand, either of the octapeptide at the dosage of […], or of insulin, or again of both at once. In that latter case the dosage of octapeptide used was also 2 μg/g.
The tests were carried out on diabetic rats, kept fasting for 4 hours before the injection of glucose (at the dose of 0.5 g/kg of animal).

[5] = tested on: adult rabbits; assay: Effect on the in vivo effect of insulin: intravenous glucose test in the rabbit
Protocol: The assays were carried out in the course of the tests carried out to determine the resistance to glucose injected by the intravenous route in the rabbit.
These tests were done on adult rabbits, which had been subjected to prior fasting for 24 hours. Blood was drawn off and the glucose level in the blood samples was determined. The measurement was carried out by the ferricyanide method as adapted for the "Technicon Autoanalyser" (J. Biol. Chem. 120: 51-55, 1937). In this way the glucose level on fasting, then its variation after the intravenous injection of glucose, at the dose of 1 gram per kilo, was determined. These measurements were then renewed in rabbits which had received, 5 minutes after the glucose, an intravenous injection of the compound (1) (5 μg/kg).

[6] = tested on: mice; assay: Influence on glycemia in mice after glucose injection; format: in vivo
Source text: Influence of octapeptide (I) on glycemia has been determined in mice under conditions similar to those described for rabbits. The experiment included two series of tests aimed at studying the immediate effects and the prolonged effects.
In the first series of tests, a simultaneous injection of glucose and of the octapeptide (I) was made, and the lowering of glycemia with respect to that of control animals which had not received glucose, was followed as a function of time.
The injections were respectively of 0.25 g of glucose and 2 mg per kilo of body weight of the animal, namely about 40 μ/g, of octapeptide (I) or […].
In the second series of tests, the mice received the product before the injection of glucose. Three injections each of 40 μg of octapeptide (I) were administered respectively 72, 48 and 24 hours before the injection of glucose.

[7] = tested on: hepatic cells; assay: Insulin binding to hepatic cells; format: cell-based
Protocol: In the same way, the ratio of insulin binding to hepatic cells placed in a suitable reaction medium was measured. When the medium contains octapeptide (I), the ratio of insulin binding to the hepatic cells increases. The result is similar if the said cells are incubated with octapeptide (I).

[8] = tested on: mice; assay: Tolerance: acute and subacute toxicity study in mice; format: in vivo; details: 1 month, daily dosages 5 to 10 times the active dosage
Protocol: An acute and subacute toxicity study was carried out on mice for 1 month, each mouse receiving daily dosages corresponding to 5 to 10 times the active dosage.

[9] = tested on: isolated hemidiaphragm of the rat; assay: Consumption of glucose in vitro, isolated rat hemidiaphragm; format: cell-based, Wistar albino male rats; details: related to the weight of tissue in grams and per hour; glucose 2 mg/ml, insulin 500 μU/ml, compound (I) 250 μg/ml
Protocol: To follow this consumption, the isolated hemidiaphragm of the rat in vitro was used. The method employed is that described by Park et al. (Effect of insulin on free glucose content of rat diaphragm in vitro - Amer. J. Physiol. 182: 12-16, 1955). The hemidiaphragm derived from Wistar albino male rats each weighing 200 to 250 g was used. The rats were fed freely for 7 days and then starved for 24 hours. The solutions studied contained 2 mg/ml of glucose, 500 μU/ml of insulin. The compound (I) was introduced at 250 μg/ml. The consumption of glucose related to the weight of tissue in grams and per hour was under these conditions: […]

glyceraldehyde 3-phosphate dehydrogenase, sequence (P04406 whole entry, species assumed): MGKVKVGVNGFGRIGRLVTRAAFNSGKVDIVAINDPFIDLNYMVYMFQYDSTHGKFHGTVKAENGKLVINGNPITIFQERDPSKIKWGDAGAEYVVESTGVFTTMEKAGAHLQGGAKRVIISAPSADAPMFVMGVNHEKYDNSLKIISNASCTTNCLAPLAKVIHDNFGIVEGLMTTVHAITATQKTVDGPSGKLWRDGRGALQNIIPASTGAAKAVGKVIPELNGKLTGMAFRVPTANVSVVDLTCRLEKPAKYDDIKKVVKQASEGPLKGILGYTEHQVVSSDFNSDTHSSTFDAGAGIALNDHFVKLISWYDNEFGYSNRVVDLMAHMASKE

Substance | effect on the inhibiting effect of somantine (in words) ([1]; compound (I) 50 μg/ml together with somantine 25 μg/ml) | effect on the activity of the enzyme (in words) ([1]; compound (I) alone, 50 μg/ml) | insulin binding to trypsinated lipid cells (in words) [2] | level of liberated insulin compared to controls (in words) [3] | course of glycemia after glucose injection (in words) [4] | decrease in the blood glucose level after intravenous glucose (in words) ([5]; rabbits fasted 24 hours, glucose 1 g/kg i.v., compound 5 μg/kg i.v. 5 minutes after the glucose) | glucose level reached, compared with fasting level (in words) ([5]; rabbits, glucose 1 g/kg i.v., compound 5 μg/kg i.v.) | persistence of the effect on carbohydrate metabolism (in words) ([5]; similar tests at intervals of several days after the injection) | drop in glycemia, immediate effect (in words) ([6]; simultaneous injection of glucose 0.25 g and octapeptide 2 mg per kilo) | drop in glycemia, prolonged effect (in words) ([6]; three injections of 40 μg at 72, 48 and 24 hours before glucose, versus control mice receiving only glucose) | ratio of insulin binding to hepatic cells (in words) ([7]; cells incubated with octapeptide (I)) | ratio of insulin binding to hepatic cells (in words) ([7]; medium contains octapeptide (I)) | toxic effect, macro and microscopic studies (in words) [8] | Consumption of glucose [9] [mg]
LSRLFDNA [compound (I), leucyl - seryl - arginyl - leucyl - phenylalanyl - aspartyl - asparaginyl - alanine] | inhibiting effect of somantine to be partly suppressed | practically without effect on the activity of the enzyme | the binding reappears | very substantial increase | glycemia is practically unmodified | decrease in the glucose level is greater | glucose level even reached values less than those which were measured in the fasting rabbits | persists several days | drop in glycemia distinctly more accentuated | more rapid drop in glycemia | similar | increases | not shown any toxic effect | 
insulin: insulin; in the hemidiaphragm test 500 μU/ml in a 2 mg/ml glucose solution [reference compound] |  |  |  |  | decreases rapidly, stabilises, then rises again |  |  |  |  |  |  |  |  | 4.10 ± 0.15
